Several values for one entry are separate records, joined by “and”; a condition that tells them apart may be missing. Identical values can stand only once. Like-named read-outs stand apart in the source and are kept apart here.

One series has as its target T1, CYP1A1 (Homo sapiens, UniProt P04798).
T1 construct: expressed in transfected cells
T1 sequence (P04798 1-512): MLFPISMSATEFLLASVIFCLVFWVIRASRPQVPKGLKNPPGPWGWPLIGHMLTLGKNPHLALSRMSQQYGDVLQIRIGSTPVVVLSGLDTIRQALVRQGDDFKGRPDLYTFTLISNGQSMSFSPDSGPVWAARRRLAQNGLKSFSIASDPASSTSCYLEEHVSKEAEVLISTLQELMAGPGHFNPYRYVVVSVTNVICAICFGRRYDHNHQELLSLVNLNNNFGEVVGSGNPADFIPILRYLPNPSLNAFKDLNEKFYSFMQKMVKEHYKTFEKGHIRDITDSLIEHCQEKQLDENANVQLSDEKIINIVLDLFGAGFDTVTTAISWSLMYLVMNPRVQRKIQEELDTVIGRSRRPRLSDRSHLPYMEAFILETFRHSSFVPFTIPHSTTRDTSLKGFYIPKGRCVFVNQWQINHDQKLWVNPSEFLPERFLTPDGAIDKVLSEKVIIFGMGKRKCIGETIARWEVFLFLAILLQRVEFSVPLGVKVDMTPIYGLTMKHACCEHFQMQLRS
The experiment in a line: EROD assay in CYP1A1 counter-screen cell line. The note with it: for SI 1B1:1A1: selectivity index. It is filed as cell-based. As to the method:
(§1) The activity of the inhibitors was assessed in a novel cell based assay generated for the purpose of this project. Enzymatic turnover of CYP1B1 was measured using the ethoxy-resorufin-O-deethylase (EROD) assay with the fluorescent substrate, resorufin ethyl ether. Cell lines were generated where the gene for CYP1B1 alone or CYP1B1 and cytochrome P450 reductase (CPR) were both under the control of an inducible promoter. A cell line was generated for counter screening where the gene for CYP1A1 was used. CYP1A1 is the closest family member to CYP1B1.

The target of series [1] is T2, CYP1B1 (Homo sapiens, UniProt Q16678).
T2 construct: expressed in transfected cells
T2 sequence (Q16678 1-543): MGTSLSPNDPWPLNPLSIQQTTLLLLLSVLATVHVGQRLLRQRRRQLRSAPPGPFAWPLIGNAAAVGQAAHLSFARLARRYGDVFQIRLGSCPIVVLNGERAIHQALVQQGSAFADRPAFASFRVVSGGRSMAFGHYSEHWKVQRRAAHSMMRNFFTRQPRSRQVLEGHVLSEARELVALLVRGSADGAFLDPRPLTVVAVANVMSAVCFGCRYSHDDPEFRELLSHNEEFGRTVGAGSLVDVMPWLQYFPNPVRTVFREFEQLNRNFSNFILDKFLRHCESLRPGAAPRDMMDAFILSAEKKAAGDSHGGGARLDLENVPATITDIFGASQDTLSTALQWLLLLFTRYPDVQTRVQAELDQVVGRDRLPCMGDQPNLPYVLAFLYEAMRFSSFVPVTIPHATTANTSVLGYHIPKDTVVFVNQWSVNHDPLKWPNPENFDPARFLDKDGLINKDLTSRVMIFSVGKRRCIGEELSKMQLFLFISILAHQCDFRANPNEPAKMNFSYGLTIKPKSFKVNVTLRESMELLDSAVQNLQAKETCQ
The experiment in a line: EROD assay in inducible CYP1B1 cell line. It counts as cell-based. As to the method: as §1

Series [2] has as its target T3, pooled human liver microsomes (pHLMs) (Homo sapiens, UniProt P05177).
T3 sequence (P05177 2-516): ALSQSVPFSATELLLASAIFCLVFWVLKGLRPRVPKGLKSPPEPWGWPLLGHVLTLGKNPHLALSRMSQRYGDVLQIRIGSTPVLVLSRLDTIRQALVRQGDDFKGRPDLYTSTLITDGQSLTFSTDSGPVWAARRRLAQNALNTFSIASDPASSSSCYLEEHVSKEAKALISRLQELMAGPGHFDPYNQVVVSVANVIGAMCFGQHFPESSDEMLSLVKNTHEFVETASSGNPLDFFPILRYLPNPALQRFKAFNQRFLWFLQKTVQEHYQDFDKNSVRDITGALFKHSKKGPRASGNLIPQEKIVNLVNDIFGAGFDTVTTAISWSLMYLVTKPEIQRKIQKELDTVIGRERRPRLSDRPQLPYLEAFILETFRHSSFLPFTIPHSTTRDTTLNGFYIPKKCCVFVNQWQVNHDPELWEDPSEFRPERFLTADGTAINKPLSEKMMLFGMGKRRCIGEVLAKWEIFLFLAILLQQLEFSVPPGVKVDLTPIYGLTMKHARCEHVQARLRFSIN
Put plainly: EROD counterscreen in pooled human liver microsomes. It is filed as biochemical. The settings on record: for IC50: human, microsomes; for SI 1B1:HLM: selectivity index. An excerpt: (§2) Human liver microsomes were used as a counterscreen to experimentally determine the magnitude of inhibitor selectivity.

The nature of series [3]: Cytotoxicity, resazurin, 72 hours after compound addition. It is filed as cell-based. The settings on record: human, HEK cells. As to the method:
(§3) Cytotoxicity was assessed at 72 hours after compound addition using resazurin. The compounds that function as selective 1B1 inhibitors had no effect on cell health. This is an essential feature for any chemopreventative agent or molecules intended to block the detrimental action of an enzyme.
In general terms: Resazurin is reduced to fluorescent resorufin, in cell work by metabolically active cells.

In another series the test system is MCF7 tumor spheroids. It is filed as cell-based. The settings on record: 547 0.5 μM with cisplatin 100 μM; CYP1B1 induced with benzo[a]pyrene. An excerpt:
510 is a control compound that lacks a coordinating group. […] All other conditions are following CYP1B1 induction with benzo[a]pyrene. Spheroid shown in inset.

In series [4] the target is T2, CYP1B1. Put plainly: Wash out experiment (FIG. 2B). It is filed as cell-based. An excerpt:
(§4) FIG. 2A includes a dose response of 547 in EROD assay in CYP1B1 cell line (blue) vs. 1A1 cell line (black). […] 510 is a control compound that lacks a coordinating group. […] All other conditions are following CYP1B1 induction with benzo[a]pyrene. Spheroid shown in inset.

For series [5], the target named is T2, CYP1B1. The experiment in a line: CYP1B1 degradation on binding (FIG. 2C). It is filed as cell-based. The note with it: 0.1 μM.
From the text: as §4

The target in series [6] is T3, pooled human liver microsomes (pHLMs). Put plainly: EROD counterscreen in pooled human liver microsomes. The note with it: human, microsomes, Table 2; EROD assay. The arrangement: IC50 pHLM; EROD assay. It is filed as biochemical.
From the text: as §2
(In general: The purpose of a counterscreen is to sort out artefacts and off-target activity.)

The test system of the next series is HEK. Put plainly: Cytotoxicity, resazurin, 72 hours after compound addition. The settings on record: Table 3; HEK; read-out: HEK cytotoxicity. It counts as cell-based. How it is done: as §3
[7] abbreviates: Table 1, 72 hours, resazurin, read-out: Cytotoxicity IC50.
Where [8] appears, read: Table 2, EROD assay, read-out: IC50 CYP1A1.
[9] abbreviates: Table 2, EROD assay, read-out: IC50 CYP1B1.

Regarding `N#CCOc1ccc(/C=C/c2ccncn2)cc1` [GL543], the IC50 on CYP1A1 (Table 1, read-out: CYP1A1 IC50) was greater than 10000 nM; on CYP1A1 (Table 3, read-out: IC50 1A1), greater than 10000 nM; at CYP1B1 [1] (Table 1, read-out: CYP1B1 IC50), 4.9 nM; at CYP1B1 [1] (Table 3, read-out: IC50 1B1), 4.9 nM and 6.4 nM; in series [2] (Table 1, read-out: hLM IC50) it was greater than 10000 nM. Besides, the IC50 at 72 h in [3] (setting [7]) was greater than 10000 nM.

In the case of `N#CCOc1ccc(-c2nc(OCCCNC(=O)OCCOCCOCCOC(=O)NC34CC5CC(CC(C5)C3)C4)c3ccccc3n2)cc1` [GL581], the IC50 at CYP1A1 (Table 1, read-out: CYP1A1 IC50) was 3600 nM; on CYP1A1 (Table 3, read-out: IC50 1A1), 3580 nM; on CYP1B1 [1] (Table 1, read-out: CYP1B1 IC50), 0.12 nM; at CYP1B1 [1] (Table 3, read-out: IC50 1B1), less than 2.5 nM; in series [2] (Table 3, read-out: IC50 pHLM) it was greater than 10000 nM. Also, in series [3] (setting [7]), the IC50 at 72 h is greater than 10000 nM.

On to `N#CCOc1ccc(-c2nc(OCC#N)c3ccccc3n2)cc1` [GL547], for which, in the series with MCF7 tumor spheroids, the “increase in cell death” value amounted to 75%. Further, on CYP1A1 (1 μM, 24 h, FIG. 2D), the “activity of CYP1A1 over 24 h” value is given as “no loss in activity”. Moreover, the IC50 is 1400 nM at CYP1A1 (Table 1, read-out: CYP1A1 IC50); 3730 nM and 2690 nM on CYP1A1 (Table 3, read-out: IC50 1A1); 0.024 nM on CYP1B1 [1] (Table 1, read-out: CYP1B1 IC50); less than 0.25 nM on CYP1B1 [1] (Table 3, read-out: IC50 1B1); 4000 nM in [2] (Table 1, read-out: hLM IC50); 3000 nM in series [2] (Table 3, read-out: IC50 pHLM). Besides, the “time CYP activity is suppressed after wash out” value at CYP1B1 [4] is listed as greater than 10 h. Besides, the “effect of binding on CYP1B1 protein” value on CYP1B1 [5] was “causes degradation of CYP1B1”. Besides, the IC50 at 72 h in series [3] (setting [7]) was greater than 10000 nM.

With `C#CCOc1ccc(-c2nc3ccccc3c(=O)[nH]2)cc1` [GL510], in series [2] (Table 3, read-out: IC50 pHLM), the IC50 came to 857 nM. For the same compound, the IC50 at 72 h in series [3] (Table 3, HEK, read-out: HEK cytotoxicity) amounted to 406 nM.

Consider `COc1ccc(-c2csc(-c3ccc(O)cc3)n2)c(OC)c1` [GL650], for which the IC50 on CYP1A1 (setting [8]) is 1960 nM; at CYP1B1 [1] (setting [9]), 61.9 nM; in series [6], 5550 nM. At CYP1A1, the “SI 1B1:1A1” value turned out to be 32. In addition, the “SI 1B1:HLM” value in series [2] was found to be 89.7.

As to `COc1ccc(/C=C/c2ccncn2)c(OC)c1` [GL433], the IC50 at CYP1A1 (human, probe resorufin ethyl ether, Table 1, read-out: CYP1A1 IC50) was found to be 10000 nM; at CYP1A1 (human, probe resorufin ethyl ether, Table 3, read-out: IC50 1A1) it was 10000 nM; at CYP1B1 [1] (Table 1, read-out: CYP1B1 IC50), 76 nM; at CYP1B1 [1] (Table 3, read-out: IC50 1B1) it was 76 nM; in [2] (Table 1, read-out: hLM IC50), 1100 nM; in [2] (Table 3, read-out: IC50 pHLM) it was 910 ± 370 nM. Further, the IC50 in the series with HEK was greater than 10000 nM. On CYP1B1 [1], the “activity as CYP1B1 inhibitor, in words” value is on record as “potent”. Further, the IC50 at 72 h in series [3] (setting [7]) was greater than 10000 nM.

As to `c1ccc(-c2nc(-c3cccnc3)cs2)nc1` [GL681], the IC50 on CYP1A1 (setting [8]) worked out at 85 nM; on CYP1B1 [1] (setting [9]), 2390 nM; in series [6], 3240 nM. Further, the “SI 1B1:1A1” value on CYP1A1 is recorded as 0.035. Besides, the “SI 1B1:HLM” value in [2] is on record as 0.14.

The values are drawn from patent US20210246109A1, “POTENT AND SELECTIVE INHIBITORS OF CYTOCHROME P450” (University of Kentucky Research Foundation, priority 2020, published 2021).
